The assay concerns the target T1, Human serum albumin (HSA) (Homo sapiens, UniProt P02768).
T1 construct: gene ALB; commercial native serum albumin (Sigma), essentially fatty acid free and globulin free; monomer
Description: isothermal titration calorimetry, single set of identical sites. Format: binding. The note with it: read-out: Ka[M^-1] / ITC ^a (converted). An excerpt: isothermal titration calorimetry, single set of identical sites on Human serum albumin (HSA)

T1 sequence (P02768 25-609): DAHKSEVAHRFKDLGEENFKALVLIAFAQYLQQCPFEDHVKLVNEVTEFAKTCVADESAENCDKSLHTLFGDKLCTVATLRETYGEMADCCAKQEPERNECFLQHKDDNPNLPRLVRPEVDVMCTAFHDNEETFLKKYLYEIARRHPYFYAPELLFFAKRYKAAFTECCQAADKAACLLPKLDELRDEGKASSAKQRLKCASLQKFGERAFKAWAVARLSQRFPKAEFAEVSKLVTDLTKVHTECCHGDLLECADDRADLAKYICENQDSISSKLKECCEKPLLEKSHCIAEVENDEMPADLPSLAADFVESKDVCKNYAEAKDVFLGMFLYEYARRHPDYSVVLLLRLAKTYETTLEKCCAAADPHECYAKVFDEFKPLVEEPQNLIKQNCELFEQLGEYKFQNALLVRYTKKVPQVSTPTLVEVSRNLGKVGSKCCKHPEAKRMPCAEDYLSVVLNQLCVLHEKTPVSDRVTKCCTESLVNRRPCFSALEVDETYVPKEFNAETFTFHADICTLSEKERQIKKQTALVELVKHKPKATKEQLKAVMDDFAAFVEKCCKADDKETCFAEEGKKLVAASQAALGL

For `CN1CC(=O)NC1=N` [creatinine, 2-Amino-1-methyl-5H-imidazol-4-one], the Kd was 11.2 µM.
